From paper PMC4780679 (Inorganic chemistry, 2015)

Target: HydG (So HydG, WT HydG) (Shewanella oneidensis, UniProt Q8EAH9)
Assay: X-band CW EPR of the [4Fe-4S]RS cluster
Type: binding
Conditions: pH 7.5, 10 K; [4Fe-4S]RS cluster site

With C[S+](CC[C@H](N)C(=O)O)C[C@H]1O[C@@H](n2cnc3c(N)ncnc32)[C@H](O)[C@@H]1O (stereo partly drawn) [SAM, S-adenosyl-L-methionine] as the compound, how does the “X-band CW EPR of the [4Fe-4S]RS cluster” value read?
The value was “interaction between the HydG [4Fe–4S]RS cluster and the substrates, Tyr or SAM”.
